Measured values: ChEMBL document CHEMBL5223084, “Discovery and Preclinical Characterization of Usmarapride (SUVN-D4010): A Potent, Selective 5-HT4 Receptor Partial Agonist for the Treatment of Cognitive Deficits Associated with Alzheimer's Disease” (J Med Chem, 2021)

Experiments:
in vitro [1] = details: rat
in vitro [2] = details: human
[3] = Solubility of the compound in buffer at pH 2 to 7 at 37 degC; type: physicochemical
[4] = rat, in vivo, po, 3 mg/kg, 24 h
[5] = Clearance in Beagle dog at 1 mg/kg, iv; type: ADME, organism-based, Canis lupus familiaris; details: in vivo
[6] = Oral bioavailability in Beagle dog at 1 mg/kg; type: ADME, organism-based, Canis lupus familiaris; details: in vivo
[7] = Terminal half life in Beagle dog at 1 mg/kg, iv; type: ADME, organism-based, Canis lupus familiaris; details: in vivo, read-out: beta t1/2 (converted)
[8] = Tmax in Beagle dog at 1 mg/kg, po; type: ADME, organism-based, Canis lupus familiaris; details: in vivo
[9] = AUC (0 to 24 hrs) in Beagle dog at 1 mg/kg, po; type: ADME, organism-based, Canis lupus familiaris; parameters: dose 1 mg/kg, route po; details: in vivo
[10] = Volume of distribution in Beagle dog at 1 mg/kg, iv; type: ADME, organism-based, Canis lupus familiaris; details: in vivo
[11] = Solubility of the compound in water; type: physicochemical
[12] = Apparent permeability of the compound in human Caco-2 cells at 10 uM; type: ADME, cell-based
[13] = Acid dissociation constant, pKa of the compound; type: physicochemical
in vivo [14] = details: Wistar, rat, po, 3 mg/kg
[15] = rat, in vivo, po, 3 mg/kg, 24 h; remark: listed apart in the source
in vivo [16] = details: Wistar, rat, iv, 1 mg/kg
in vivo [17] = details: Wistar, rat, po, 3 mg/kg; remark: listed apart in the source
in vivo [18] = details: Wistar, rat, po, 3 mg/kg; remark: listed apart in the source
in vivo [19] = details: Wistar, rat, po, 3 mg/kg; remark: listed apart in the source
[20] = rat, in vivo, po, 3 mg/kg, 24 h; remark: listed apart in the source
in vivo [21] = details: Wistar, rat, brain and plasma, po, 10 mg/kg

Row | SMILES | Vdss [4] | metabolised at 0.5 h (in vitro [1]; liver microsomes) | metabolised at 0.5 h (in vitro [2]; liver microsomes) | half-life at 24 h (in vivo [14]) | AUC [15] | clearance at 24 h (in vivo [16]) | AUC at 24 h (in vivo [17]) | bioavailability at 24 h (in vivo [18]) | Cmax at 24 h (in vivo [19]) | Kp at 1 h (in vivo [21]) | further results
1 | CC(C)n1nc(-c2noc(C3CCN(CC4CCOCC4)CC3)n2)c2ccccc21 |  |  |  |  |  |  |  |  |  |  | metabolised at 0.5 h (in vitro [1]; microsomes): 64.1%; metabolised at 0.5 h (in vitro [2]; microsomes): 40.4%
2 | CC(C)n1nc(-c2nnc(C3CCN(CC4CC4)CC3)o2)c2ccccc21 | 8 L/kg | 83.8% | 43.6% | 1.7 h | 394 ng·h/mL |  |  |  |  |  | 
3 | CC(C)N1CCC(c2nnc(-c3nn(C(C)C)c4ccccc34)o2)CC1 | 10 L/kg | 35.7% | 15.3% | 1.9 h | 133 ng·h/mL |  |  |  | 91 ng/mL | 3.6 | F [20]: 9%

More lines, main results first:

Row | Vdss [4] | metabolised at 0.5 h (in vitro [1]; liver microsomes) | metabolised at 0.5 h (in vitro [2]; liver microsomes) | half-life at 24 h (in vivo [14]) | AUC [15] | clearance at 24 h (in vivo [16]) | AUC at 24 h (in vivo [17]) | bioavailability at 24 h (in vivo [18]) | Cmax at 24 h (in vivo [19]) | Kp at 1 h (in vivo [21]) | SMILES | further results
4 | 8 L/kg | 25.1% | 26.2% |  |  |  |  |  |  |  | COCCCN1CCC(c2nnc(-c3nn(C(C)C)c4ccccc34)o2)CC1.O=C(O)C(=O)O | solubility [3]: 20 mg/mL; clearance [5]: 18 mL/min/kg; bioavailability [6]: 72%; half-life [7]: 6 h; Tmax [8]: 0.5 h; AUC(0-t) [9]: 711 ng·h/mL; Vd [10]: 5.1 L/kg; solubility [11]: 17.1 mg/mL; Papp at 10 µM [12]: 38 ×10⁻⁶ cm/s; pKa [13]: 8.4
5 | 4.9 L/kg | 55.1% | 62.5% | 2.3 h |  | 81 mL/min/kg | 16 ng·h/mL | 2.6% | 14 ng/mL |  | CC(C)n1nc(-c2nnc(C3CCN(CC4CCC4)CC3)o2)c2ccccc21 | 
6 | 7.6 L/kg |  |  | 1.5 h |  | 62 mL/min/kg | 22 ng·h/mL | 2% | 17 ng/mL | 1.6 | CC(C)n1c(=O)c(C(=O)NCCCN2CCCCC2)c(O)c2ccsc21 [PRX-03140] | 
